Assay results as given in patent publication US11987568B2, “Allosteric inhibitor of WEE1 kinase” (H. LEE MOFFITT CANCER CENTER AND RESEARCH INSTITUTE, INC., priority 2018, dated 2024).
Where “and” joins values, the source holds several entries; their conditions need not be identical. Equal values may be shown once.

Target: full length human WEE1 kinase (Homo sapiens, UniProt P30291)
Test: ELISA based assay: WEE1 phosphorylation of biotinylated H2B peptide spanning Tyr37
Assay type: biochemical
Parameters: A full length human WEE1 kinase that was enzymatically active was purified from insect cell; ELISA assay % Inhibition: concentration or dose not given beside the values
Conditions: for ELISA Inhibition (%): Table 1, several values in a cell are repeat determinations
Source text: Designing of a Novel inhibitor Screening Platform: […] A full length human WEE1 kinase that was enzymatically active was purified from insect cell. […] NCI diversity set compound library ( 1600 compounds) was used for the screening.

full length human WEE1 kinase, sequence (P30291 whole entry): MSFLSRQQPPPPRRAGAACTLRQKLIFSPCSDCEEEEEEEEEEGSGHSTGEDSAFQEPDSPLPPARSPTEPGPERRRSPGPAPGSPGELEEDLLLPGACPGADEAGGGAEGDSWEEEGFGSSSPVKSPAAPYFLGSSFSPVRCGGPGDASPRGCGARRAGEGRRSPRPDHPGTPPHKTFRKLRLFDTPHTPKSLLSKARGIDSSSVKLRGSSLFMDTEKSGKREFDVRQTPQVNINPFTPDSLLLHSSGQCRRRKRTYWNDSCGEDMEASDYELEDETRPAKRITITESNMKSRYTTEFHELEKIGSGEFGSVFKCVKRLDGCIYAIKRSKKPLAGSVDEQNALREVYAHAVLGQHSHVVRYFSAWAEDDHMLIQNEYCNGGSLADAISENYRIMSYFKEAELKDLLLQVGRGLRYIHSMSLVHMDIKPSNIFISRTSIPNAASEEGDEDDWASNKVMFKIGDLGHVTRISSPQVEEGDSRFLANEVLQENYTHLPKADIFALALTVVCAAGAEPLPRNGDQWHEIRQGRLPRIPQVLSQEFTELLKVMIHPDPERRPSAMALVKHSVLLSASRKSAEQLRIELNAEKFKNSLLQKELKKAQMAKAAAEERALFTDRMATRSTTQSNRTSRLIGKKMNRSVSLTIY

Structure (SMILES) | ELISA Inhibition (%) | also measured
CC(C)(C)OC(=O)Nc1ccc(NC(=O)c2cccc(C(=O)Nc3ccc(NC(=O)OC(C)(C)C)cc3)c2)cc1 [SG5-099] | −14% | 
Nc1ccc(NC(=O)c2cccc(C(=O)Nc3ccc(N)cc3)c2)cc1 [SG5-103] | 12% | 
Cc1cc(C(=O)Nc2ccc(NC(=O)OC(C)(C)C)cc2)c(C)cc1C(=O)Nc1ccc(NC(=O)OC(C)(C)C)cc1 [SG5-106] | −23% | 
CC(C)(C)OC(=O)Nc1ccc(NC(=O)c2ccc(C(=O)Nc3ccc(NC(=O)OC(C)(C)C)cc3)o2)cc1 [SG5-107, Di-tert-butyl (((furan-2,5-dicarbonyl)bis(azanediyl))bis(4,1-phenylene))dicarbamate] | −8% | 
Cc1cc(C(=O)Nc2ccc(N)cc2)c(C)cc1C(=O)Nc1ccc(N)cc1 [SG5-110] | 14% | 
CC(C)(C)OC(=O)Nc1ccc(NC(=O)c2ccc(C(=O)Nc3ccc(NC(=O)OC(C)(C)C)cc3)nc2)cc1 [SG5-119, Di-tert-butyl (((pyridine-2,5-dicarbonyl)bis(azanediyl))bis(4,1-phenylene))dicarbamate] | −17% | 
CC(C)(C)OC(=O)Nc1ccc(NC(=O)[C@H]2CC[C@H](C(=O)Nc3ccc(NC(=O)OC(C)(C)C)cc3)CC2)cc1 [SG5-121] | −7% | 
CC(C)(C)OC(=O)Nc1ccc(NC(=O)c2cccc(C(=O)Nc3ccc(NC(=O)OC(C)(C)C)cc3)n2)cc1 [SG5-123] | −39% | 
Nc1ccc(NC(=O)c2ccc(C(=O)Nc3ccc(N)cc3)nc2)cc1 [SG5-124, N^2,N^5-bis(4-aminophenyl)pyridine-2,5-dicarboxamide] | 73% and 103% | ELISA assay % Inhibition (Table 3, No peptide = 100, No inhibitor = 0): 98%
Nc1ccc(NC(=O)[C@H]2CC[C@H](C(=O)Nc3ccc(N)cc3)CC2)cc1 [SG5-126] | −39% | 
Nc1ccc(NC(=O)c2cccc(C(=O)Nc3ccc(N)cc3)n2)cc1 [SG5-128] | 2% | 
CC(C)(C)OC(=O)Nc1ccc(NC(=O)c2ccc(C(=O)Nc3ccc(NC(=O)OC(C)(C)C)c(F)c3)cc2)cc1F [SG5-133-1] | −57% | 
CC(C)(C)OC(=O)Nc1ccc(NC(=O)c2ccc(C(=O)Nc3ccc(NC(=O)OC(C)(C)C)c(Cl)c3)cc2)cc1Cl [SG5-133-2] | −38% | 
Nc1ccc(NC(=O)c2ccc(C(=O)Nc3ccc(N)c(F)c3)cc2)cc1F [SG5-137-1] | −24% | 
Cl.Nc1ccc(NC(=O)c2ccc(C(=O)Nc3ccc(N)c(Cl)c3)cc2)cc1Cl [SG5-137-2] | −52% | 
Cl.Nc1ccc(CNC(=O)c2ccc(C(=O)NCc3ccc(N)cc3)cc2)cc1 [SG5-137-3, N^1,N^4-bis(4-aminobenzyl)terephthalamide dihydrochloride] |  | ELISA Inhibition (%) (dihydrochloride): 32% and 60%
Cc1cc(C(=O)Nc2ccc(NC(=O)OC(C)(C)C)c(F)c2)c(C)cc1C(=O)Nc1ccc(NC(=O)OC(C)(C)C)c(F)c1 [SG5-140-1] | 25% | 
CC(C)(C)OC(=O)Nc1ccc(NC(=O)c2ccc(C(=O)Nc3ccc(NC(=O)OC(C)(C)C)c(F)c3)o2)cc1F [SG5-140-2] | 25% | 
CC(C)(C)OC(=O)Nc1ccc(NC(=O)c2ccc(C(=O)Nc3ccc(NC(=O)OC(C)(C)C)c(F)c3)nc2)cc1F [SG5-140-3, Di-tert-butyl (((pyridine-2,5-dicarbonyl)bis(azanediyl))bis(2-fluoro-4,1-phenylene))dicarbamate] | 22% | 

Structure (SMILES) | ELISA Inhibition (%) | also measured
CC(C)(C)OC(=O)Nc1ccc(NC(=O)[C@H]2CC[C@H](C(=O)Nc3ccc(NC(=O)OC(C)(C)C)c(F)c3)CC2)cc1F [SG5-140-4] | 20% | 
Cc1cc(C(=O)Nc2ccc(NC(=O)OC(C)(C)C)c(Cl)c2)c(C)cc1C(=O)Nc1ccc(NC(=O)OC(C)(C)C)c(Cl)c1 [SG5-140-5] | 24% | 
CC(C)(C)OC(=O)Nc1ccc(NC(=O)c2ccc(C(=O)Nc3ccc(NC(=O)OC(C)(C)C)c(Cl)c3)o2)cc1Cl [SG5-140-6] | 17% | 
CC(C)(C)OC(=O)Nc1ccc(NC(=O)c2ccc(C(=O)Nc3ccc(NC(=O)OC(C)(C)C)c(Cl)c3)nc2)cc1Cl [SG5-140-7] | 12% | 
CC(C)(C)OC(=O)Nc1ccc(NC(=O)C2CCC(C(=O)Nc3ccc(NC(=O)OC(C)(C)C)c(Cl)c3)CC2)cc1Cl (stereo not drawn) [SG5-140-8] | 25% | 
Cc1cc(C(=O)Nc2ccc(CNC(=O)OC(C)(C)C)cc2)c(C)cc1C(=O)Nc1ccc(CNC(=O)OC(C)(C)C)cc1 [SG5-140-9] | 18% | 
CC(C)(C)OC(=O)NCc1ccc(NC(=O)c2ccc(C(=O)Nc3ccc(CNC(=O)OC(C)(C)C)cc3)o2)cc1 [SG5-140-10] | 13% | 
CC(C)(C)OC(=O)NCc1ccc(NC(=O)c2ccc(C(=O)Nc3ccc(CNC(=O)OC(C)(C)C)cc3)nc2)cc1 [SG5-140-11, Di-tert-butyl ((((pyridine-2,5-dicarbonyl)bis(azanediyl))bis(4,1-phenylene))bis(methylene))dicarbamate] | −6% | 
CC(C)(C)OC(=O)NCc1ccc(NC(=O)C2CCC(C(=O)Nc3ccc(CNC(=O)OC(C)(C)C)cc3)CC2)cc1 (stereo not drawn) [SG5-140-12] | 4% | 
Cc1cc(C(=O)NCc2ccc(NC(=O)OC(C)(C)C)cc2)c(C)cc1C(=O)NCc1ccc(NC(=O)OC(C)(C)C)cc1 [SG5-140-13] | −4% | 
CC(C)(C)OC(=O)Nc1ccc(CNC(=O)c2ccc(C(=O)NCc3ccc(NC(=O)OC(C)(C)C)cc3)o2)cc1 [SG5-140-14] | −4% | 
CC(C)(C)OC(=O)Nc1ccc(CNC(=O)c2ccc(C(=O)NCc3ccc(NC(=O)OC(C)(C)C)cc3)nc2)cc1 [SG5-140-15] | 12% | 
CC(C)(C)OC(=O)Nc1ccc(CNC(=O)C2CCC(C(=O)NCc3ccc(NC(=O)OC(C)(C)C)cc3)CC2)cc1 (stereo not drawn) [SG5-140-16] | 8% | 
Cc1cc(C(=O)NC2CCN(C(=O)OC(C)(C)C)CC2)c(C)cc1C(=O)NC1CCN(C(=O)OC(C)(C)C)CC1 [SG5-140-17] | 10% | 
CC(C)(C)OC(=O)N1CCC(NC(=O)c2ccc(C(=O)NC3CCN(C(=O)OC(C)(C)C)CC3)o2)CC1 [SG5-140-18] | −27% | 
CC(C)(C)OC(=O)N1CCC(NC(=O)c2ccc(C(=O)NC3CCN(C(=O)OC(C)(C)C)CC3)nc2)CC1 [SG5-140-19] | 28% | 
CC(C)(C)OC(=O)N1CCC(NC(=O)C2CCC(C(=O)NC3CCN(C(=O)OC(C)(C)C)CC3)CC2)CC1 (stereo not drawn) [SG5-140-20] | 28% | 
Cc1cc(C(=O)Nc2ccc(N)c(F)c2)c(C)cc1C(=O)Nc1ccc(N)c(F)c1.Cl [SG5-147-1] | 41% | 
Cl.Nc1ccc(NC(=O)c2ccc(C(=O)Nc3ccc(N)c(F)c3)o2)cc1F [SG5-147-2] | 37% | 
